Legend:
IGROV-1 tumors = assay: In vivo antitumor activity in xenograft mice; conditions: 2 mg/kg intraperitoneal, seven administrations; compared to vehicle or 50 mg/kg of olaparib
Protocol: FIG. 14 illustrates the in vivo antitumor activity of COMP. C57BL/6-Rag2−/−IL2rg−/− xenograft mice, carrying IGROV-1 cells, were treated with vehicle (control), or 2 mg/kg of COMP or 50 mg/kg of olaparib by intraperitoneal injection three times per week (seven administrations in total). The treatment was initiated when palpable tumors were established (^˜100 mm3). […] In FIGS. 14A-C, data are mean±SEM, n=13 animals.

MiaPACA = assay: Growth inhibition, SRB assay, MiaPACA; type: cell-based; conditions: Homo sapiens, MIA PaCa-2, wild-type BRCA1/2, 48 hours
Excerpt: (§1) Table 2 refers to the growth inhibitory effect of COMP, olaparib and cisplatin (CDDP) in a panel of human immortalized breast (T47D, MCF-7, MDA-MB-231, MDA-MB-468, SK-BR-3 and HCC1937), ovarian and endocervical (OCVAR, SKOV-3, […],IGROV-1 and HeLa), pancreatic (PANC-1 and MIAPACA), neuroblastoma (SHSY-5Y), lung (NCI-H460), prostate (VCaP) melanoma (A375 and SK-MEL-5) and glioblastoma (SF-208) cancer cells, immortalized normal MCF10a and HFF1 human cells, and patient-derived ovarian (PD-OVCA #1, #9, #41, #49 and #62) cancer cells. […] Data are mean±SEM (n=5).
(§2) In an embodiment, IC50 values were determined by Sulforhodamine B (SRB) or MTS [3-(4,5-dimethylthiazol-2-yl)-5-(3-carboxymethoxyphenyl)-2-(4-sulfophenyl)-2H-tetrazolium] assay in immortalized and PD-OVCA cells, respectively. Cancer cells were plated in 96-well plates and incubated for 24 hours. Cells were then exposed to serial dilutions of compounds for 48 hours. The solvent DMSO corresponding to the maximum concentration used in these assays (0.025%) was included as control. Results are the mean±S.E.M. of 3-5 independent experiments.

PANC-1 = assay: Growth inhibition, SRB assay, PANC-1; type: cell-based; conditions: Homo sapiens, PANC-1, wild-type BRCA1/2, 48 hours
Excerpt: as §1, §2

PD-OVCA#62 = assay: Growth inhibition, MTS assay, PD-OVCA#62; type: cell-based, human; conditions: Homo sapiens, PD-OVCA#62, wild-type BRCA1/2, 48 hours
Excerpt: as §1, §2

HCC1937 cells = assay: Wound healing assay (cell migration); type: cell-based, human; conditions: 1.9 μM
Protocol: FIG. 12 illustrates the prevention of HCC1937 cells migration by COMP. Confluent cells were treated with 1.9 μM COMP or DMSO and observed at different time-points in the wound healing assay (scale bar=50 μm and magnification=100×).
In an embodiment, COMP prevented cell migration of triple-negative breast cancer cells. The effect of COMP on the migration ability of HCC1937 cells was also studied.

SK-BR-3 = assay: Growth inhibition, SRB assay, SK-BR-3; type: cell-based, human; conditions: Homo sapiens, SK-BR-3, 48 h
Excerpt: as §1, §2

BRCA1-BARD1 interaction = assay: Co-IP of BRCA1-BARD1 interaction; type: cell-based, human; conditions: 12 and 20 μM; 18 hours (MDA-MB-231, HCC1937), 24 hours (IGROV-1)
Protocol: (FIGS. 11A-D) Co-IP was performed in MDA-MB-231 (FIG. 11A), HCC1937 (FIG. 11B) and IGROV-1 (FIG. 11C) cells treated with 12 and 20 μM COMP for 18 hours (in MDA-MB-231 and HCC1937 cells) and 24 hours (in IGROV-1 cells). Assay was performed using the Pierce classic magnetic IP and Kit followed by western blot detection. In FIGS. 11A-C, representative immunoblots are shown; whole-cell lysate (Input).

HCC1937 mammospheres = assay: 3D-mammosphere model; type: cell-based, human
Protocol: FIG. 5 illustrates the effect of COMP on (A-B) HCC1937 mammosphere formation after 72 hours of treatment with COMP; treatment was performed at seeding time of HCC1937 cells or at (C-D) three-day-old HCC1937 mammospheres for up to 11 days of treatment. FIG. 5A and FIG. 5C are representative images (scale bar=50 μm, 100× magnification).

[1] = system: ovarian and endocervical cancer cells (OCVAR, SKOV-3, SK-BR-3, IGROV-1 and HeLa); assay: Growth inhibition, panel of ovarian and endocervical cancer cells; type: cell-based; conditions: Homo sapiens, range over OCVAR, 48 hours
Protocol: In an embodiment, the activity of COMP compound was tested in an array of human normal and cancer cell lines (Table 2, FIG. 2).
as §1, §2

MCF10a = assay: Growth inhibition, SRB assay, normal MCF10a cells; type: cell-based, human; conditions: Homo sapiens, MCF-10A, 48 hours
Excerpt: as §1, §2

BRCA1 = BRCA1 cellular localization by immunofluorescence; type: cell-based, human; conditions: 12 μM, 48 hours; MDA-MB-231, HCC1937 and IGROV-1 cells
Protocol: FIG. 10 illustrates the effect of 12 μM COMP on (A) γH2AX expression levels and on (FIG. 10B) γH2AX and RAD51 foci formation, and BRCA1 foci formation and cellular localization after 48 hours of treatment. […] FIG. 10B are representative images generated using Fiji software (scale bar=100 μm; 400 × magnification).

OVCAR-3 = assay: Growth inhibition, SRB assay, OVCAR-3; type: cell-based, human; conditions: Homo sapiens, OVCAR-3, 48 h
Excerpt: as §1, §2

MCF-7 = assay: Growth inhibition, SRB assay, MCF-7; type: cell-based, human; conditions: Homo sapiens, MCF7, 48 h
Excerpt: as §1, §2

SK-MEL-5 = assay: Growth inhibition, SRB assay, SK-MEL-5; type: cell-based; conditions: Homo sapiens, SK-MEL-5, wild-type BRCA1/2, 48 hours
Excerpt: as §1, §2

[2] = system: IGROV-1 (mutBRCA1 280delA; mutBRCA2 3320del1); assay: Growth inhibition, SRB assay, IGROV-1; type: cell-based, human; conditions: Homo sapiens, IGROV-1, 48 h
Excerpt: as §1, §2

- IC50 (MiaPACA): 4.5 ± 0.4 µM
- IC50 (PANC-1): 4.4 ± 0.9 µM
- IC50 (SK-BR-3; SK-BR-3, BRCA1 loss of heterozigoty, 48 hours): 5.7 ± 1.4 µM
- IC50 (SK-BR-3; SK-BR-3, BRCA1 loss of heterozygosity, 48 hours (second Table 2)): 5.7 µM
- IC50 [1]: 4.6 to 13.9 µM
- IC50 (OVCAR-3; OVCAR-3, BRCA1 wild-type, 48 hours (second Table 2)): 13.9 µM
- IC50 (OVCAR-3; OVCAR-3, wild-type BRCA1/2, 48 hours): 13.9 ± 1.7 µM
- IC50 (MCF-7; MCF-7, BRCA1 wild-type, 48 hours (second Table 2)): 12 µM
- IC50 (MCF-7; MCF-7, wild-type BRCA1/2, 48 hours): 12 ± 1.5 µM
- IC50 (SK-MEL-5): 5.65 ± 0.95 µM
SMILES: CC[C@H]1CN(C)C2Cc3c([nH]c4ccccc34)/C(=N/Nc3ccc(Br)cn3)C[C@@H]1[C@@H]2C(=O)OC [COMP, methyl (5R,6S,14S,E)-8-(2-(5-bromopyridin-2-yl) hydrazineylidene)-5-ethyl-3-methyl-2,3,4,5,6,7,8,9-octahydro-1H-2,6-methanoazecino [5,4-b]indole-14-carboxylate]
- growth of IGROV-1 tumors (IGROV-1 tumors): significantly inhibited
- IC50 (PD-OVCA#62): 14.2 ± 2.9 µM
- wound closure (HCC1937 cells): significantly reduced the wound closure
- BRCA1-BARD1 interaction (BARD1 co-immunoprecipitated with BRCA1) (BRCA1-BARD1 interaction): disruption of the BRCA1-BARD1 interaction
- mammosphere growth in three-day old spheroids (HCC1937 mammospheres; 6 μM and 12 μM, up to 11 days): markedly reduced
- mammosphere (spheroids) formation (HCC1937 mammospheres; 6 μM, added upon seeding of HCC1937 cells, 72 hours): complete abolishment of spheroids formation
- mammosphere integrity in three-day old spheroids (HCC1937 mammospheres; 12 μM, up to 11 days): triggering mammosphere disintegration
- IC50 (MCF10a): 29.5 µM
- BRCA1 cellular localization (BRCA1): triggered the nucleocytoplasmic translocation of BRCA1
- IC50 ([2]; IGROV-1, mutant BRCA1/2, 48 hours): 4.6 ± 1.5 µM
- IC50 ([2]; Igrov-1, BRCA1 mutant, 48 hours (second Table 2)): 4.6 µM

From patent US20250345317A1, “New pharmaceutical compounds, methods and uses thereof” (BBIT-THERAPEUTICS, LDA., priority 2020, published 2025)
